The values below come from PubChem BioAssay (NCI).

Assay in all cases: NCI-60 cell line screen, 48 h
Test [1] deals with HOP-92 NSCLC.
Test [2] relates to UO-31 renal.
The test system of test [3] is SK-MEL-2 melanoma.
The test system of test [4] is K-562 leukemia.
Test [5] deals with KM12 colon.
In test [6] the test system is BT-549 breast.
In test [7] the test system is T-47D breast.
For test [8], the system named is SK-OV-3 ovarian.
The test system of test [9] is UACC-257 melanoma.
Test [10] concerns TK-10 renal.
In test [11] the test system is CAKI-1 renal.
Test [12] deals with LOX IMVI melanoma.
Test [13] relates to PC-3 prostate.
The subject of test [14] is SN12C renal.
The subject of test [15] is EKVX NSCLC.
Test [16] has as its system SF-295 CNS.

SMILES strings stand for the structures.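 Tested at 5 concentrations; 48 h exposure; 96-well plates; endpoints linearly interpolated, else capped at highest concentration. TGI denotes the concentration required for complete inhibition of growth.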 Where only a bound is given, the exact number is not on record here.

For the compound `O=c1[nH]ncc2[nH]c3c(c12)CCCc1ccccc1-3`, the TGI in test [1], in [2], in test [3], in [4], in test [5] and in test [6] was over 100 µM throughout. The TGI in test [7], in [8], in test [9], in [10], in test [11] and in [12] was over 100 µM in each case. Further, the TGI in test [13] was over 100 µM; in test [14], over 100 µM; in [15], 51.7 µM; in test [16], over 100 µM.
Regarding `Cc1c2ccccc2nc2[nH]c3ccncc3c12`, the TGI in test [1] is 79.6 µM; in test [2], over 100 µM; in [3] it was over 100 µM; in test [4] it was over 100 µM; in [5], over 100 µM; in [6], over 100 µM. For the same compound, the TGI in test [7] is over 100 µM; in [8] it was over 100 µM; in test [9], over 100 µM; in test [10] it was 59.4 µM; in test [11] it was 96.7 µM; in [12] it was 45.4 µM. Further, the TGI in [13] was over 100 µM; in test [14] it was 85.1 µM; in test [15] it was 98.5 µM; in [16], over 100 µM.
On to `Cc1ccc(-c2n[nH]c(CC#N)n2)cc1`, for which the TGI in test [1], in [2], in test [3], in test [4], in test [5] and in [6] was over 100 µM each time. Also, the TGI in test [7], in test [8], in [9], in test [10], in [11] and in [12] was over 100 µM each time. Besides, the TGI in [13], in test [14], in test [15] and in [16] was over 100 µM throughout.
With `COc1ccc(/C=C/c2cc(=O)cc(/C=C/c3ccc(OC)c(O)c3)o2)cc1O`, the TGI in test [1] was 13.5 µM; in test [2], 11.5 µM; in test [3], 7.99 µM; in test [4], over 100 µM; in test [5], 4.26 µM; in [6], 10.3 µM. Besides, the TGI stood at 10.8 µM in test [7]; 21.7 µM in test [8]; 3.78 µM in test [9]; 16.9 µM in [10]; 12 µM in [11]; 3.95 µM in test [12]. The TGI is 12.3 µM in [13], over 33.6 µM in test [14], 13.3 µM in [15] and 13.3 µM in test [16].
With `C/C(=N/NC(=S)Nc1cccc(Cl)c1)c1cccc(/C(C)=N\NC(=S)Nc2cccc(Cl)c2)n1`, the TGI in test [1] is over 100 µM; in test [2] it was over 20.9 µM; in [3], over 43.9 µM; in test [4], over 40.4 µM; in test [5] it was over 100 µM; in test [6] it was over 100 µM. Further, the TGI is over 100 µM in [7]; over 55.3 µM in test [8]; 56 µM in test [9]; over 100 µM in test [10]; over 48.1 µM in [11]; over 38.5 µM in [12]. Also, the TGI in test [13] was over 58.1 µM; in test [14] it was over 46.3 µM; in test [15], over 39.7 µM; in test [16], over 30 µM.
For `Cc1ccc(-c2n[nH]c(=O)n2N)cc1`, the TGI in test [1], in test [2], in test [3], in test [4], in [5] and in test [6] was over 100 µM throughout. In addition, the TGI in [7], in [8], in test [9], in test [10], in test [11] and in test [12] was over 100 µM throughout. Further, the TGI in test [13], in test [14], in test [15] and in test [16] was over 100 µM each time.
With `CCCC/C=C1\CCC(CN2CCOCC2)C1=O` (configuration not stated), the TGI was determined as 3.72 µM in test [1]; 11.6 µM in test [2]; 23.8 µM in test [3]; 5.82 µM in [4]; 7.38 µM in test [5]; 9.47 µM in [6]. The TGI in [7] came to 31.3 µM; in [8], 31 µM; in test [9], 13.5 µM; in test [10], 19.5 µM; in test [11] it was 3.74 µM; in [12] it was 3.14 µM. Further, the TGI in [13] was 26.2 µM; in [14], 10.7 µM; in test [15], 28.3 µM; in test [16], 29.8 µM.
As for `CCOC(=O)c1c(N2CCOCC2)[nH]c(=O)c(C(c2ccc(N(C)C)cc2)c2c(O)c(C(=O)OCC)c(N3CCOCC3)[nH]c2=O)c1O`, the TGI in test [1], in [2], in [3], in test [4], in [5] and in test [6] was over 100 µM throughout. In addition, the TGI in test [7], in [8], in test [9], in [10], in [11] and in [12] was over 100 µM each time. Moreover, the TGI in test [13], in test [14], in [15] and in [16] was over 100 µM each time.
Take `CCOC(=O)c1c(SCC#N)n(-c2ccccc2)c(=S)n(-c2ccccc2)c1=O`: the TGI is 93.3 µM in test [1]; over 100 µM in [2]; over 100 µM in [3]; over 100 µM in test [4]; over 100 µM in test [5]; over 100 µM in test [6]. Besides, the TGI in [7], in test [8], in test [9], in test [10], in test [11] and in [12] was over 100 µM each time. The TGI in test [13], in test [14], in test [15] and in test [16] was over 100 µM each time.
As to `O=C(Nc1ccccc1)N1CC(CN2CCN(c3ccccc3)CC2)OC1=O` (configuration not stated), the TGI in test [1], in [2], in test [3], in [4], in test [5] and in test [6] was over 100 µM each time. In addition, the TGI in test [7], in [8], in test [9], in test [10], in test [11] and in test [12] was over 100 µM throughout. Also, the TGI in test [13], in test [14], in [15] and in [16] was over 100 µM each time.
`CN(C)c1ncc(-c2c[nH]c3ccccc23)nc1-c1c[nH]c2ccccc12`: the TGI in test [1] turned out to be 8.33 µM; in test [2] it was 13.3 µM; in [3], 12.8 µM; in test [4] it was 8.48 µM; in [5], 5.3 µM; in [6], 49.1 µM. The TGI in test [7] stood at 19.9 µM; in test [8] it was 20.4 µM; in [9] it was 3.89 µM; in [10], 22.1 µM; in test [11], 11 µM; in [12] it was 5.33 µM. The TGI came to 13 µM in test [13], 5.78 µM in test [14], 10.8 µM in [15] and 6.48 µM in [16].
As for `O=C1c2ccccc2C(=O)c2[nH]c(=O)c(/C=N/Nc3ccc([N+](=O)[O-])cc3)nc21`, the TGI in test [1] is 38 µM; in test [2], over 48 µM; in test [3], 12.1 µM; in test [4], over 65.4 µM; in test [5] it was over 100 µM; in test [6] it was 20.4 µM. The TGI is over 95 µM in [7]; over 47.3 µM in test [8]; 5.88 µM in test [9]; 51.2 µM in test [10]; over 75.2 µM in test [11]; over 39.2 µM in test [12]. In addition, the TGI was over 57.9 µM in [13], 37.2 µM in test [14], over 73 µM in test [15] and 12.4 µM in test [16].
Take `COC(=O)C1=C(C(=O)OC)C2(/N=C(\Nc3ccccc3)c3ccccc3)N(c3ccc(OC)cc3)CC(c3ccccc3)N2O1` (configuration not stated): the TGI in test [1], in test [2], in test [3], in test [4], in test [5] and in test [6] was over 100 µM each time. The TGI in test [7], in test [8], in test [9], in [10], in [11] and in test [12] was over 100 µM in each case. The TGI in [13], in [14], in [15] and in test [16] was over 100 µM each time.
With `COC(=O)c1c(C)cccc1C1CN=NC12Cc1c(C)cccc1C2=O` (configuration not stated), the TGI in test [1], in [2], in test [3], in [4], in test [5] and in [6] was over 100 µM each time. For the same compound, the TGI in [7], in test [8], in test [9], in test [10], in test [11] and in [12] was over 100 µM each time. Moreover, the TGI in [13] was over 100 µM; in test [14] it was over 100 µM; in test [15] it was 79.7 µM; in [16], over 100 µM.
On to `COc1ccc(C(F)(F)F)cc1NC(=O)O/N=C(/Cl)C(C)C`, for which the TGI in test [1] is 18.9 µM; in [2] it was 33.3 µM; in test [3], 35.6 µM; in test [4], 3.99 µM; in test [5], over 60.2 µM; in test [6], 41.3 µM. Besides, the TGI in test [7] was 45.5 µM; in test [8], over 67.3 µM; in [9], 42.5 µM; in [10], 28.4 µM; in [11], 3.18 µM; in test [12], 13.2 µM. In addition, the TGI in [13] was 34.5 µM; in test [14] it was 32.2 µM; in test [15] it was 33.6 µM; in test [16] it was over 66.3 µM.
In the case of `COC(=O)c1ccccc1C1CN=NC12Cc1c(C)c3c(c(C)c1C2=O)CCC3` (configuration not stated), the TGI in test [1], in test [2], in [3], in test [4], in [5] and in test [6] was over 100 µM in each case. Besides, the TGI in [7] was over 100 µM; in test [8], over 100 µM; in [9], over 100 µM; in [10], 90.8 µM; in test [11], over 100 µM; in test [12], over 100 µM. The TGI in [13], in test [14], in [15] and in test [16] was over 100 µM each time.
With `CCOC(=O)c1c2ccccc2n2c(=O)n(C)nnc12`, the TGI in test [1], in [2], in test [3], in [4], in test [5] and in [6] was over 100 µM throughout. Further, the TGI in test [7], in test [8], in test [9], in [10], in [11] and in [12] was over 100 µM in each case. Further, the TGI in test [13], in [14], in [15] and in [16] was over 100 µM in each case.
